The results in this text go back to patent US10323038B2, “Pyrazole compounds and methods of making and using same” (ABIDE THERAPEUTICS, INC., priority 2015, dated 2019).

Experiment [1] addresses FAAH (Mus musculus (Mouse), UniProt O08914). Nature of the experiment: In vitro competitive activity-based protein profiling, FAAH (mouse). The format is biochemical. The conditions noted are these: for inhibition at 1 µM: read-out: FAAH % inh. 1 μM (mouse). In outline:
(§1)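 Proteomes at 1.0 mg/mL protein (mouse brain membranes or cell lysates; human prefrontal cortex or cell membranes) preincubated with inhibitor 30 min at 37 °C. Then FP-Rh or HT-01 probe (50 μM stock) added for 30 min at 37 °C. MAGL and FAAH activity measured by SDS-PAGE band fluorescence.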

In experiment [2] the target is T1, MAGL (Mus musculus (Mouse), UniProt O35678). Nature of the experiment: Mouse brain proteomes from inhibitor treated mice (oral gavage, 4 h), MAGL. The format is in vivo. The note with it: read-out: MAGL % inh. 5 mg/kg (mouse). On the procedure:
Preparation of Mouse Brain Proteomes from Inhibitor Treated Mice.
Inhibitors were administered to wild-type C57Bl/6J by oral gavage in a vehicle of polyethylene glycol. Each animal was sacrificed 4 h following administration and brain proteomes were prepared and analyzed according to previously established methods (See Niphakis, M. J., et al. (2011) ACS Chem. Neurosci. and Long, J. Z., et al. Nat. Chem. Biol. 5:37-44).

The target of experiment [3] is T1, MAGL. Nature of the experiment: In vitro competitive activity-based protein profiling, MAGL (mouse). The format is biochemical. The note with it: for inhibition at 1 µM: read-out: MAGL % inh. 1 μM (mouse). Put shortly: as §1
Experiment [4] has as its target MAGL (Homo sapiens (Human), UniProt Q99685). Nature of the experiment: In vitro competitive activity-based protein profiling, MAGL (human). The note with it: 10 μM, human proteome; read-out: MAGL % inh. 10 μM (human). Type of experiment: biochemical. On the procedure:
(§2) In Vitro Competitive Activity-Based Protein Profiling.
(§3) Proteomes (mouse brain membrane fraction or cell lysates for mouse assays; human prefrontal cortex or cell membrane fractions for human assays) (50 μL, 1.0 mg/mL total protein concentration) were preincubated with varying concentrations of inhibitors at 37° C. After 30 min, FP—Rh or HT-01 (1.0 μL, 50 μM in DMSO) was added and the mixture was incubated for another 30 min at 37° C. Reactions were quenched with SDS loading buffer (15 μL-4×) and run on SDS-PAGE. Following gel imaging, serine hydrolase activity was determined by measuring fluorescent intensity of gel bands corresponding to MAGL and FAAH using ImageJ 1.43u software.

For experiment [5], the target named is FAAH (Homo sapiens (Human), UniProt O00519). Nature of the experiment: In vitro competitive activity-based protein profiling, FAAH (human). Type of experiment: biochemical. The conditions noted are these: 10 μM, human proteome; read-out: FAAH % inh. 10 μM (human). On the procedure:
as §2, §3

T1 sequence (O35678 whole entry): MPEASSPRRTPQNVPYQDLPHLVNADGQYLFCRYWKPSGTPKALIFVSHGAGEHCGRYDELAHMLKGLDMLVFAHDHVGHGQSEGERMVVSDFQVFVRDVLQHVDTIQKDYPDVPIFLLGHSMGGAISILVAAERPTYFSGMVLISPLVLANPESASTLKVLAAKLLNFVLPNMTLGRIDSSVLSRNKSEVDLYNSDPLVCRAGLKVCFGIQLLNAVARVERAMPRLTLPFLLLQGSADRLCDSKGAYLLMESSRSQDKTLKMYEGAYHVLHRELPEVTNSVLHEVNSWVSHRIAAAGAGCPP
Sequence of FAAH (Mus musculus (Mouse), UniProt O08914) (O08914 whole entry): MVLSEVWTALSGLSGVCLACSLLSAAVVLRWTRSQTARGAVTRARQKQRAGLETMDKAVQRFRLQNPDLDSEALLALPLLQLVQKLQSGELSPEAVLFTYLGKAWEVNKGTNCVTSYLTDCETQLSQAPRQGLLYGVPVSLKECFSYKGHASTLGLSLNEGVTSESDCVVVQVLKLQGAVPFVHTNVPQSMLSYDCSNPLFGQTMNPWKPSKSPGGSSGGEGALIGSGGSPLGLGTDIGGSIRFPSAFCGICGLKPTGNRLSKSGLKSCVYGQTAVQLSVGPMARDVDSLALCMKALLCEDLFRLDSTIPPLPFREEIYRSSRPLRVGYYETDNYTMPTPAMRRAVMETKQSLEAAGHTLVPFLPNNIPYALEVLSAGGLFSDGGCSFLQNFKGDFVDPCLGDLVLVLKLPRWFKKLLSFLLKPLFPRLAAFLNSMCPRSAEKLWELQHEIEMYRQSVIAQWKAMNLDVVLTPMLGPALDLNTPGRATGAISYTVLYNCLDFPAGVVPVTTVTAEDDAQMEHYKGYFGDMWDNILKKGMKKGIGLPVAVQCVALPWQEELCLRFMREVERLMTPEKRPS
Sequence of MAGL (Homo sapiens (Human), UniProt Q99685) (Q99685 whole entry): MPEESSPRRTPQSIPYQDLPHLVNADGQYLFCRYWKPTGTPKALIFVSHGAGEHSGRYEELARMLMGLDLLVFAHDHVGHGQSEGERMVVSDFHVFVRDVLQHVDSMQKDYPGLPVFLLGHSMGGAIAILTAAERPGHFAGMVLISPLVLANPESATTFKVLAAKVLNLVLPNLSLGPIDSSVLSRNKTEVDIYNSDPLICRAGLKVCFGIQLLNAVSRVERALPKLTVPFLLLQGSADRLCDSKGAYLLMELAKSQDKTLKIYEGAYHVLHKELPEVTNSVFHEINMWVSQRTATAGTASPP
Sequence of FAAH (Homo sapiens (Human), UniProt O00519) (O00519 whole entry): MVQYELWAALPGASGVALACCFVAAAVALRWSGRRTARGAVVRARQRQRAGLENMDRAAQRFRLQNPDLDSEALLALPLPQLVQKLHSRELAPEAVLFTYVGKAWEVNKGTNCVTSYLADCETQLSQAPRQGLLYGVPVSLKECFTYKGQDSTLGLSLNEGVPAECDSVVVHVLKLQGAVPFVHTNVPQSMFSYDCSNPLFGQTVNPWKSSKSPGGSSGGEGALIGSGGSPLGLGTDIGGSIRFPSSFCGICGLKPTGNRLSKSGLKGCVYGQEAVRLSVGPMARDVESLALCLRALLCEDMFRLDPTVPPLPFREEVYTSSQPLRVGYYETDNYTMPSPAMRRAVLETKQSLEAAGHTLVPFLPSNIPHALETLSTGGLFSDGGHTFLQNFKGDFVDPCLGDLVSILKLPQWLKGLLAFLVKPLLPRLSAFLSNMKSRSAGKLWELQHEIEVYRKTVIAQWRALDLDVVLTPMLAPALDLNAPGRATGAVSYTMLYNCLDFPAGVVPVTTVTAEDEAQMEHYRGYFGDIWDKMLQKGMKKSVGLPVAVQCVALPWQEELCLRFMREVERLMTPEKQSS

Turning to `CC(=O)N(C)c1cnn(C(=O)N2CC3CN(Cc4ccccc4Cl)CC3C2)c1` (centres unmarked) [Example 9, N-(1-(5-(2-chlorobenzyl)octahydropyrrolo[3,4-c]pyrrole-2-carbonyl)-1H-pyrazol-4-yl)-N-methylacetamide], on FAAH [1], the IC50 was at most 100 nM and the inhibition at 1 µM is at least 75%. In addition, the inhibition at 5 mg/kg on MAGL [2] fell in the range of 50 to 75%. On MAGL [3], the IC50 lay in the range of 100 to 1000 nM and the inhibition at 1 µM was at least 75%.

As to `CC(=O)N(C)c1cnn(C(=O)N2CC3CN(Cc4ccc(Cl)cc4)CC3C2)c1` (centres unmarked) [Example 11, N-(1-(5-(4-chlorobenzyl)octahydropyrrolo[3,4-c]pyrrole-2-carbonyl)-1H-pyrazol-4-yl)-N-methylacetamide], on FAAH [1], the IC50 was at most 100 nM and the inhibition at 1 µM is at least 75%. For the same molecule, the inhibition at 5 mg/kg on MAGL [2] is at least 75%. Further, at MAGL [3], the IC50 was 100 to 1000 nM and the inhibition at 1 µM is at least 75%.

As to `CC(=O)N(C)c1cnn(C(=O)N2CCC3(CCN(Cc4ccccc4Cl)C3)C2)c1` (centres unmarked) [Example 50, N-(1-(7-(2-chlorobenzyl)-2,7-diazaspiro[4.4]nonane-2-carbonyl)-1H-pyrazol-4-yl)-N-methylacetamide], on FAAH [1], the IC50 is at most 100 nM and the inhibition at 1 µM was at least 75%. Also, the inhibition at 5 mg/kg on MAGL [2] is at least 75%. On MAGL [3], the IC50 was in the range of 100 to 1000 nM and the inhibition at 1 µM was 50 to 75%.

Take `CC(=O)N(C)c1cnn(C(=O)N2CCC3(CCN(Cc4ccccc4C(F)(F)F)C3)C2)c1` (centres unmarked) [Example 58, N-methyl-N-(1-(7-(2-(trifluoromethyl)benzyl)-2,7-diazaspiro[4.4]nonane-2-carbonyl)-1H-pyrazol-4-yl)acetamide]: on FAAH [1], the IC50 was at most 100 nM and the inhibition at 1 µM was at least 75%. In addition, the inhibition at 5 mg/kg on MAGL [2] was at least 75%. Besides, at MAGL [3], the IC50 is 100 to 1000 nM and the inhibition at 1 µM was at least 75%.

For the molecule `CC(=O)N(C)c1cnn(C(=O)N2CCC3(CCN(Cc4ccc(F)cc4)C3)C2)c1` (centres unmarked) [Example 75, N-(1-(7-(4-fluorobenzyl)-2,7-diazaspiro[4.4]nonane-2-carbonyl)-1H-pyrazol-4-yl)-N-methylacetamide], the figures for the inhibition at 1 µM on FAAH [1] and on MAGL [3] were 50 to 75% and 0 to 25%, respectively. In addition, the inhibition at 10 µM at MAGL [4] and on FAAH [5] was at least 75% each time.

On to `CC(=O)N(C)c1cnn(C(=O)N2CCC3(CCN(Cc4ccc(C)cc4)C3)C2)c1` (centres unmarked) [Example 76, N-methyl-N-(1-(7-(4-methylbenzyl)-2,7-diazaspiro[4.4]nonane-2-carbonyl)-1H-pyrazol-4-yl)acetamide], for which the inhibition at 1 µM lay in the range of 50 to 75% on FAAH [1] and 0 to 25% at MAGL [3]. In addition, the inhibition at 10 µM on MAGL [4] and on FAAH [5] was at least 75% in each case.

Turning to `COc1ccc(CN2CCC3(CCN(C(=O)n4cc(N(C)C(C)=O)cn4)C3)C2)cc1` (centres unmarked) [Example 77, N-(1-(7-(4-methoxybenzyl)-2,7-diazaspiro[4.4]nonane-2-carbonyl)-1H-pyrazol-4-yl)-N-methylacetamide], the inhibition at 1 µM at FAAH [1] lay within 25 to 50%; on MAGL [3], 0 to 25%. The inhibition at 10 µM on MAGL [4] and at FAAH [5] was at least 75% throughout.

Consider `CC(=O)N(C)c1cnn(C(=O)N2CCC3(CCN(Cc4cccc(F)c4)C3)C2)c1` (centres unmarked) [Example 79, N-(1-(7-(3-fluorobenzyl)-2,7-diazaspiro[4.4]nonane-2-carbonyl)-1H-pyrazol-4-yl)-N-methylacetamide], for which the values for the inhibition at 1 µM at FAAH [1] and on MAGL [3] were at least 75% and 0 to 25%, respectively. Moreover, the inhibition at 10 µM at MAGL [4] and at FAAH [5] was at least 75% in each case.

On to `CC(=O)N(C)c1cnn(C(=O)N2CCC3(CCN(Cc4cccc(C)c4)C3)C2)c1` (centres unmarked) [Example 80, N-methyl-N-(1-(7-(3-methylbenzyl)-2,7-diazaspiro[4.4]nonane-2-carbonyl)-1H-pyrazol-4-yl)acetamide], for which the inhibition at 1 µM was 50 to 75% on FAAH [1] and 0 to 25% at MAGL [3]. Further, the inhibition at 10 µM at MAGL [4] and on FAAH [5] was at least 75% in each case.

As for `COc1cccc(CN2CCC3(CCN(C(=O)n4cc(N(C)C(C)=O)cn4)C3)C2)c1` (centres unmarked) [Example 81, N-(1-(7-(3-methoxybenzyl)-2,7-diazaspiro[4.4]nonane-2-carbonyl)-1H-pyrazol-4-yl)-N-methylacetamide], the inhibition at 1 µM at FAAH [1] lay within 50 to 75%; on MAGL [3], 0 to 25%. Further, the inhibition at 10 µM at MAGL [4] and on FAAH [5] was at least 75% in each case.

Take `CC(=O)N(C)c1cnn(C(=O)N2CC3(CCN(Cc4ccccc4C(F)(F)F)CC3)C2)c1` [Example 90, N-methyl-N-(1-(7-(2-(trifluoromethyl)benzyl)-2,7-diazaspiro[3.5]nonane-2-carbonyl)-1H-pyrazol-4-yl)acetamide]: the inhibition at 1 µM at FAAH [1] was at least 75%; at MAGL [3], 0 to 25%. The inhibition at 10 µM is 25 to 50% at MAGL [4] and at least 75% on FAAH [5].

`CC(=O)N(C)c1cnn(C(=O)N2C[C@H]3C[C@@H](NCc4cccc(Cl)c4)C[C@H]3C2)c1` [Example 134, N-(1-(cis-5-(3-chlorobenzylamino)octahydrocyclopenta[c]pyrrole-2-carbonyl)-1H-pyrazol-4-yl)-N-methylacetamide]: the figures for the inhibition at 1 µM on FAAH [1] and on MAGL [3] were at least 75% and 0 to 25%, respectively. The inhibition at 10 µM on MAGL [4] and at FAAH [5] was at least 75% in each case.

Turning to `CC(=O)N(C)c1cnn(C(=O)N2C[C@H]3C[C@H](N(C)Cc4ccc(Cl)cc4)C[C@H]3C2)c1` [Example 148, N-(1-(trans-5-((4-chlorobenzyl)(methyl)amino)octahydrocyclopenta[c]pyrrole-2-carbonyl)-1H-pyrazol-4-yl)-N-methylacetamide], at FAAH [1], the IC50 was at most 100 nM and the inhibition at 1 µM was at least 75%. In addition, the inhibition at 5 mg/kg at MAGL [2] is at least 75%. On MAGL [3], the IC50 is at most 100 nM and the inhibition at 1 µM is at least 75%.

Turning to `CC(=O)N(C)c1cnn(C(=O)N2C[C@H]3C[C@H](N(Cc4ccccc4Cl)C(C)=O)C[C@H]3C2)c1` [Example 172, N-(2-chlorobenzyl)-N-(trans-2-(4-(N-methylacetamido)-1H-pyrazole-1-carbonyl)octahydrocyclopenta[c]pyrrol-5-yl)acetamide], at FAAH [1], the IC50 was 1000 to 10000 nM and the inhibition at 1 µM fell in the range of 0 to 25%. Further, the inhibition at 5 mg/kg at MAGL [2] is 0 to 25%. Further, at MAGL [3], the IC50 was at most 100 nM and the inhibition at 1 µM is at least 75%.

For `COc1ccccc1CN1CC2CN(C(=O)n3cc(N(C)C(C)=O)cn3)CC2C1` (centres unmarked) [Example 183, N-(1-(5-(2-methoxybenzyl)octahydropyrrolo[3,4-c]pyrrole-2-carbonyl)-1H-pyrazol-4-yl)-N-methylacetamide], the inhibition at 1 µM on FAAH [1] was at least 75%; on MAGL [3], 0 to 25%. Further, the inhibition at 10 µM at MAGL [4] and at FAAH [5] was at least 75% in each case.

Regarding `CC(=O)Nc1cnn(C(=O)N2CCN(Cc3ccc(C(F)(F)F)cc3N3CCCC3)CC2)c1` [Example 217, N-(1-(4-(2-(pyrrolidin-1-yl)-4-(trifluoromethyl)benzyl)piperazine-1-carbonyl)-1H-pyrazol-4-yl)acetamide], on FAAH [1], the half-maximal inhibitory concentration (IC50) is 1000 to 10000 nM and the inhibition at 1 µM fell in the range of 25 to 50%. Also, the inhibition at 5 mg/kg on MAGL [2] is at least 75%. Also, on MAGL [3], the IC50 is at most 100 nM and the inhibition at 1 µM was at least 75%.

With `CC(=O)N(C)c1cnn(C(=O)N2CC3(CCN(Cc4ccc(-c5ccccc5)cc4C)CC3)C2)c1` [Example 222, N-methyl-N-(1-(7-((3-methyl-[1,1′-biphenyl]-4-yl)methyl)-2,7-diazaspiro[3.5]nonane-2-carbonyl)-1H-pyrazol-4-yl)acetamide], the inhibition at 1 µM is at least 75% on FAAH [1] and 0 to 25% on MAGL [3]. In addition, the figures for the inhibition at 10 µM at MAGL [4] and on FAAH [5] were at least 75% and 50 to 75%, respectively.

Consider `CC(=O)N(C)c1cnn(C(=O)N2CC3CN(Cc4ccc(CN5CCOCC5)cc4)CC3C2)c1` (centres unmarked) [Example 225, N-methyl-N-(1-(5-(4-(morpholinomethyl)benzyl)octahydropyrrolo[3,4-c]pyrrole-2-carbonyl)-1H-pyrazol-4-yl)acetamide], for which the inhibition at 1 µM is 25 to 50% on FAAH [1] and 0 to 25% at MAGL [3]. Moreover, the inhibition at 10 µM at MAGL [4] and on FAAH [5] was at least 75% each time.

In the case of `CC(=O)N(C)c1cnn(C(=O)N2CCC3(CCN(Cc4ccc(CN5CCOCC5)cc4)C3)C2)c1` (centres unmarked) [Example 231, N-methyl-N-(1-(7-(4-(morpholinomethyl)benzyl)-2,7-diazaspiro[4.4]nonane-2-carbonyl)-1H-pyrazol-4-yl)acetamide], the inhibition at 1 µM on FAAH [1] and on MAGL [3] was 0 to 25% each time. The inhibition at 10 µM on MAGL [4] is at least 75%; on FAAH [5] it was 25 to 50%.
